Assay results published in ChEMBL document CHEMBL1201862, “PubChem BioAssay data set” (2004).
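In this assay, cells in 96-well plates receive the compound at five concentrations for 48 hours. Endpoints are linearly interpolated between the surrounding concentrations. The concentration for 50% growth inhibition is given as GI50.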 Calls of active or inactive are those of the source. No stated cut-off is given here; in the data, active = GI50 up to about 1.1 µM and inactive = higher.

Legend:
Test in all cases: growth of human tumour cells (NCI), 48 h
[1] = system: NCI-H23
[2] = system: HT-29
[3] = system: OVCAR-8
[4] = system: SN12C
[5] = system: K562
[6] = system: M14
[7] = system: 786-0
[8] = system: BT-549
[9] = system: UACC-62
[10] = system: SF-539
[11] = system: SK-MEL-5
[12] = system: HL-60
[13] = system: SR
[14] = system: LOX IMVI
[15] = system: SW-620
[16] = system: HCT-15
[17] = system: HCT-116
[18] = system: A498
[19] = system: HOP-62
[20] = system: MOLT-4
[21] = system: UO-31
[22] = system: EKVX
[23] = system: COLO 205
[24] = system: NCI/ADR-RES
[25] = system: DU-145
[26] = system: NCI-H460
[27] = system: OVCAR-5
[28] = system: SK-MEL-2
[29] = system: HOP-92
[30] = system: SK-OV-3
[31] = system: U-251
[32] = system: MDA-MB-231
[33] = system: SK-MEL-28
[34] = system: TK-10
[35] = system: OVCAR-3
[36] = system: KM12
[37] = system: Malme-3M
[38] = system: SNB-19
[39] = system: MDA-N
[40] = system: ACHN
[41] = system: SF-295
[42] = system: CCRF-CEM
[43] = system: UACC-257
[44] = system: SF-268
[45] = system: NCI-H522
[46] = system: IGROV-1
[47] = system: CAKI-1
[48] = system: MDA-MB-435
[49] = system: RPMI-8226
[50] = system: HCC 2998
[51] = system: SNB-75
[52] = system: PC-3
[53] = system: MCF7
[54] = system: A549
[55] = system: OVCAR-4

Compound: CC(=O)NS(=O)(=O)c1ccc(NC(=O)c2c3ccccc3nc3ccccc23)cc1
- GI50 [1]: > 100 µM (inactive)
- GI50 [2]: > 100 µM (inactive)
- GI50 [3]: > 100 µM (inactive)
- GI50 [4]: > 100 µM (inactive)
- GI50 [5]: > 100 µM (inactive)
- GI50 [6]: > 100 µM (inactive)
- GI50 [7]: > 100 µM (inactive)
- GI50 [8]: > 100 µM (inactive)
- GI50 [9]: > 100 µM (inactive)
- GI50 [10]: > 100 µM (inactive)
- GI50 [11]: > 100 µM (inactive)
- GI50 [12]: 1.48 µM (inactive)
- GI50 [13]: > 100 µM (inactive)
- GI50 [14]: > 100 µM (inactive)
- GI50 [15]: > 100 µM (inactive)
- GI50 [16]: > 100 µM
- GI50 [17]: > 100 µM (inactive)
- GI50 [18]: > 100 µM (inactive)
- GI50 [19]: > 100 µM (inactive)
- GI50 [20]: > 100 µM (inactive)
- GI50 [21]: 30.4 µM (inactive)
- GI50 [22]: > 100 µM (inactive)
- GI50 [23]: > 100 µM (inactive)
- GI50 [24]: > 100 µM (inactive)
- GI50 [25]: > 100 µM (inactive)
- GI50 [26]: > 100 µM (inactive)
- GI50 [27]: > 100 µM (inactive)
- GI50 [28]: > 100 µM (inactive)
- GI50 [29]: > 100 µM (inactive)
- GI50 [30]: > 100 µM (inactive)
- GI50 [31]: > 100 µM (inactive)
- GI50 [32]: > 100 µM (inactive)
- GI50 [33]: > 100 µM (inactive)
- GI50 [34]: > 100 µM (inactive)
- GI50 [35]: > 100 µM (inactive)
- GI50 [36]: > 100 µM (inactive)
- GI50 [37]: 34.4 µM (inactive)
- GI50 [38]: > 100 µM (inactive)
- GI50 [39]: > 100 µM (inactive)
- GI50 [40]: > 100 µM (inactive)
- GI50 [41]: > 100 µM (inactive)
- GI50 [42]: > 100 µM (inactive)
- GI50 [43]: > 100 µM (inactive)
- GI50 [44]: > 100 µM (inactive)
- GI50 [45]: > 100 µM (inactive)
- GI50 [46]: > 100 µM (inactive)
- GI50 [47]: > 100 µM (inactive)
- GI50 [48]: > 100 µM (inactive)
- GI50 [49]: > 100 µM (inactive)
- GI50 [50]: > 100 µM (inactive)
- GI50 [51]: > 100 µM (inactive)
- GI50 [52]: > 100 µM (inactive)
- GI50 [53]: > 100 µM (inactive)
- GI50 [54]: > 100 µM (inactive)
- GI50 [55]: > 100 µM (inactive)
